Measurements published in ChEMBL document CHEMBL1201862, “PubChem BioAssay data set” (2004).
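Dose response: 5 concentrations. Exposure: 48 h. Format: 96-well plates. Endpoint: linear interpolation; highest concentration if not reached. Abbreviation: GI50, concentration required for 50% inhibition of growth.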 Calls of active or inactive are those of the source. Rule as the data show it: active = GI50 up to about 1.1 µM and inactive = higher.

Legend:
Assay in all cases: inhibition of tumour cell growth, NCI panel, 48 h
EKVX = system: EKVX
U-251 = system: U-251
UACC-62 = system: UACC-62
UACC-257 = system: UACC-257
LOX IMVI = system: LOX IMVI
SF-539 = system: SF-539
A549 = system: A549
SK-MEL-28 = system: SK-MEL-28
HCT-15 = system: HCT-15
COLO 205 = system: COLO 205
M19-MEL = system: M19-MEL
OVCAR-3 = system: OVCAR-3
MOLT-4 = system: MOLT-4
NCI-H226 = system: NCI-H226
DU-145 = system: DU-145
MDA-N = system: MDA-N
SR = system: SR
NCI/ADR-RES = system: NCI/ADR-RES
Hs-578T = system: Hs-578T
MDA-MB-231 = system: MDA-MB-231

SMILES	GI50 (EKVX)	GI50 (U-251)	GI50 (UACC-62)	GI50 (UACC-257)	GI50 (LOX IMVI)	GI50 (SF-539)	GI50 (A549)	GI50 (SK-MEL-28)	GI50 (HCT-15) [µM]	GI50 (COLO 205)	GI50 (M19-MEL)	GI50 (OVCAR-3)	GI50 (MOLT-4)	GI50 (NCI-H226)	GI50 (DU-145)	GI50 (MDA-N)	GI50 (SR)	GI50 (NCI/ADR-RES)	GI50 (Hs-578T)	GI50 (MDA-MB-231)
O=[N+]([O-])c1cc(-c2nnc(S)[nH]2)ccc1O	> 100 µM (inactive)	> 100 µM (inactive)	> 100 µM (inactive)	> 100 µM (inactive)	> 100 µM (inactive)	> 100 µM (inactive)	> 100 µM (inactive)	> 100 µM (inactive)	16.5	20.1 µM (inactive)	86.3 µM (inactive)									
Nc1ccc(O)c2c1C(=O)c1c(N)ccc(O)c1C2=O	> 100 µM (inactive)	> 100 µM (inactive)	> 100 µM (inactive)	> 100 µM (inactive)	> 100 µM (inactive)	> 100 µM (inactive)	> 100 µM (inactive)	> 100 µM (inactive)	> 100	> 100 µM (inactive)	> 100 µM (inactive)	> 100 µM (inactive)	> 100 µM (inactive)							
Nc1ccc2c(c1)C(=O)N(OS(=O)(=O)c1ccccc1)C2=O	> 100 µM (inactive)	> 100 µM (inactive)	> 100 µM (inactive)	> 100 µM (inactive)	35.5 µM (inactive)	> 100 µM (inactive)	> 100 µM (inactive)	> 100 µM (inactive)	> 100	56.4 µM (inactive)	> 100 µM (inactive)	> 100 µM (inactive)		> 100 µM (inactive)						
O=C1C2=C(c3ccccc31)C(c1ccc([N+](=O)[O-])cc1)NC(S)=N2 (stereo not drawn)	> 100 µM (inactive)	> 100 µM (inactive)	43.5 µM (inactive)	> 100 µM (inactive)		> 100 µM (inactive)	48.5 µM (inactive)	59.3 µM (inactive)	51.9	> 100 µM (inactive)	78.9 µM (inactive)	49.9 µM (inactive)	35.4 µM (inactive)	19.2 µM (inactive)						
N#CNc1nc(C(=O)Nc2ccc(Cl)cc2)cc(-c2ccccc2)n1	> 100 µM (inactive)	> 100 µM (inactive)	> 100 µM (inactive)	> 100 µM (inactive)		> 100 µM (inactive)	> 100 µM (inactive)	> 100 µM (inactive)	> 100		> 100 µM (inactive)	> 100 µM (inactive)	> 100 µM (inactive)	> 100 µM (inactive)						
O=S1(=O)CS(=O)(=O)OCCCO1	> 100 µM (inactive)	> 100 µM (inactive)	> 100 µM (inactive)	> 100 µM (inactive)	> 100 µM (inactive)	54.1 µM (inactive)	> 100 µM (inactive)	> 100 µM (inactive)	> 100	> 100 µM (inactive)		> 100 µM (inactive)	51.3 µM (inactive)	> 100 µM (inactive)	> 100 µM (inactive)	> 100 µM (inactive)	41.2 µM (inactive)	> 100 µM (inactive)	> 100 µM (inactive)	> 100 µM (inactive)
Fc1ccccc1-c1nn2c(C34CC5CC(CC(C5)C3)C4)nnc2s1	> 100 µM (inactive)	> 100 µM (inactive)	> 100 µM (inactive)	> 100 µM (inactive)	> 100 µM (inactive)	> 100 µM (inactive)	> 100 µM (inactive)	> 100 µM (inactive)	> 100	> 100 µM (inactive)		> 100 µM (inactive)	> 100 µM (inactive)	> 100 µM (inactive)	> 100 µM (inactive)	> 100 µM (inactive)	> 100 µM (inactive)	> 100 µM (inactive)	> 100 µM (inactive)	> 100 µM (inactive)
C#C[C@]1(O)[C@@H](CO)O[C@@H](n2ccc(=O)[nH]c2=O)[C@@H]1O	4.72 µM (inactive)	0.121 µM (active)	0.156 µM (active)	1.81 µM (inactive)	0.0246 µM (active)	0.0117 µM (active)	0.0308 µM (active)	0.791 µM (active)	0.0186	< 0.01 µM (active)		0.513 µM (active)	< 0.0177 µM (active)	0.0746 µM (active)	0.0391 µM (active)	0.0822 µM (active)	62.4 µM (inactive)	< 0.0134 µM (active)	1.41 µM (inactive)	0.251 µM (active)
CCOc1ccccc1/N=N/c1ccc2oc(=O)c(C(C)=O)cc2c1	45.9 µM (inactive)	43.7 µM (inactive)	> 100 µM (inactive)	> 100 µM (inactive)	> 100 µM (inactive)	> 100 µM (inactive)	> 100 µM (inactive)	> 100 µM (inactive)	> 100	> 100 µM (inactive)	> 100 µM (inactive)	> 100 µM (inactive)	> 100 µM (inactive)							
O=C(O)C1OC(Oc2cc(O)c3c(=O)cc(-c4ccc(O)cc4)oc3c2)C(O)C(O)C1O (stereo not drawn)	> 100 µM (inactive)	> 100 µM (inactive)		> 100 µM (inactive)	> 100 µM (inactive)	> 100 µM (inactive)	> 100 µM (inactive)	> 100 µM (inactive)		> 100 µM (inactive)	> 100 µM (inactive)	> 100 µM (inactive)		> 100 µM (inactive)						
O=C1c2ccccc2C(=O)N1[C@@H](Cc1ccccc1)C(=O)n1cccc1CO	> 100 µM (inactive)	> 100 µM (inactive)	> 100 µM (inactive)	> 100 µM (inactive)	> 100 µM (inactive)	> 100 µM (inactive)	> 100 µM (inactive)	> 100 µM (inactive)	> 100	> 100 µM (inactive)		> 100 µM (inactive)	> 100 µM (inactive)	> 100 µM (inactive)	> 100 µM (inactive)	> 100 µM (inactive)	> 100 µM (inactive)	> 100 µM (inactive)	> 100 µM (inactive)	> 100 µM (inactive)
Cc1cc(Cl)ccc1NC1=NC(=O)C(CC(=O)Nc2ccc(Cl)cc2Cl)S1 (stereo not drawn)	> 100 µM (inactive)	> 100 µM (inactive)	> 100 µM (inactive)	> 100 µM (inactive)	> 100 µM (inactive)	> 100 µM (inactive)	> 100 µM (inactive)	> 100 µM (inactive)	> 100	> 100 µM (inactive)	> 100 µM (inactive)	> 100 µM (inactive)	> 100 µM (inactive)							
O=C1/C(=C/c2ccccc2)CCC/C1=C\c1ccc(O)c(CN2CCCCC2)c1	6.75 µM (inactive)	3.17 µM (inactive)	3.59 µM (inactive)	5.53 µM (inactive)	1.99 µM (inactive)	2.95 µM (inactive)	7.59 µM (inactive)	6.92 µM (inactive)	1.78	5.89 µM (inactive)		6.98 µM (inactive)	3.1 µM (inactive)	6.41 µM (inactive)	2.62 µM (inactive)	2.56 µM (inactive)	1.05 µM (active)	2.69 µM (inactive)	3.93 µM (inactive)	2.77 µM (inactive)
COc1cc(CCNC2=CC(=O)c3cccnc3C2=O)ccc1O	3.08 µM (inactive)	0.766 µM (active)	0.957 µM (active)	0.869 µM (active)	0.284 µM (active)	1.59 µM (inactive)	1.56 µM (inactive)	1.22 µM (inactive)	1.18	1.6 µM (inactive)		2.04 µM (inactive)	4.09 µM (inactive)	1.84 µM (inactive)	1.72 µM (inactive)	0.167 µM (active)	1.87 µM (inactive)	2.55 µM (inactive)	0.849 µM (active)	0.736 µM (active)
O=C1c2cc([N+](=O)[O-])ccc2-c2cccc(F)c21	18.9 µM (inactive)	90.4 µM (inactive)	56.1 µM (inactive)	65.3 µM (inactive)	60 µM (inactive)	40.2 µM (inactive)	> 100 µM (inactive)	> 100 µM (inactive)	37.1	> 100 µM (inactive)		> 100 µM (inactive)	42.3 µM (inactive)	96.4 µM (inactive)	> 100 µM (inactive)	72.3 µM (inactive)	30.3 µM (inactive)	> 100 µM (inactive)	52.1 µM (inactive)	> 100 µM (inactive)
Cc1ccccc1C1CC(=O)CC(c2ccccc2C)C12C(=O)NC(=S)NC2=O (stereo not drawn)	47.2 µM (inactive)	30.7 µM (inactive)	18.7 µM (inactive)	22 µM (inactive)	17.2 µM (inactive)	20.9 µM (inactive)	29.5 µM (inactive)	20.2 µM (inactive)	20.7	19.5 µM (inactive)		29 µM (inactive)	42.4 µM (inactive)	20 µM (inactive)	41.7 µM (inactive)	23.6 µM (inactive)	37.2 µM (inactive)	30.3 µM (inactive)	29.1 µM (inactive)	31.3 µM (inactive)
Cc1ccc(NC(=O)CC/C(CC(=O)c2ccc(F)cc2)=N\NC(=O)C(=O)NN)cc1C	> 100 µM (inactive)	> 100 µM (inactive)	> 100 µM (inactive)	> 100 µM (inactive)	> 100 µM (inactive)	> 100 µM (inactive)	> 100 µM (inactive)	> 100 µM (inactive)	> 100	> 100 µM (inactive)	> 100 µM (inactive)	> 100 µM (inactive)		> 100 µM (inactive)						
COC(=O)[C@@H]1C[C@H]([Se]c2ccccc2)CN1C(=O)OCc1ccccc1	39.2 µM (inactive)	35.2 µM (inactive)	15.1 µM (inactive)	31.4 µM (inactive)	12.6 µM (inactive)	39.8 µM (inactive)	29.6 µM (inactive)	24 µM (inactive)	30.5	23.4 µM (inactive)		24 µM (inactive)	22 µM (inactive)	32.7 µM (inactive)	47.2 µM (inactive)	19.2 µM (inactive)	26.1 µM (inactive)	39.2 µM (inactive)	64.9 µM (inactive)	48.9 µM (inactive)
